ChEMBL document CHEMBL1158710, “Cytotoxic flavonoids from Platymiscium floribundum” (J Nat Prod, 2005)
In brackets after ≈: the same amount, converted by molar mass.

Assays:
Assay type in all cases: functional, cell-based
CCRF-CEM = assay: Cytotoxicity against human CEM cells after 72 hrs by MTT assay
HL-60 = assay: Cytotoxicity against human HL60 cells after 72 hrs by MTT assay; details: HL-60, 72 h
HCT-8 = assay: Cytotoxicity against human HCT8 cells after 72 hrs by MTT assay; details: HCT-8, 72 h
MCF7 = assay: Cytotoxicity against human MCF7 cells after 72 hrs by MTT assay; details: MCF7, 72 h
B16 = assay: Cytotoxicity against mouse B16 cells after 72 hrs by MTT assay; details: B16, 72 h

SMILES | IC50 (CCRF-CEM) [µg/mL] | IC50 (HL-60) [µg/mL] | IC50 (HCT-8) [µg/mL] | IC50 (MCF7) [µg/mL] | IC50 (B16) [µg/mL]
COc1ccc2c(c1)O[C@H]1c3ccc(OC)cc3OC[C@@H]21 [HOMOPTEROCARPIN] | 5.5 (≈ 19.3 µM) | 3.9 (≈ 13.7 µM) | 6.4 (≈ 22.5 µM) | 18.5 (≈ 65.1 µM) | 5.2 (≈ 18.3 µM)
COc1cccc2c1C(=O)c1c(O)c3c(c(O)c1C2=O)C[C@@](O)(C(=O)CO)C[C@@H]3O[C@H]1C[C@H](N)[C@H](O)[C@H](C)O1 [DOXORUBICIN] | – | – | – | 0.2 (≈ 0.368 µM) | –
COc1ccc2c(c1)OC1c3cc(OC)c(OC)cc3OCC21 (stereo unspecified) | 0.6 (≈ 1.91 µM) | 0.1 (≈ 0.318 µM) | 0.6 (≈ 1.91 µM) | 0.7 (≈ 2.23 µM) | 2.9 (≈ 9.23 µM)
COc1ccc2c(c1)OC1c3ccc(O)c(O)c3OCC21 (stereo unspecified) [VESTICARPAN] | 7.3 (≈ 25.5 µM) | 6.9 (≈ 24.1 µM) | 12.4 (≈ 43.3 µM) | 10 (≈ 34.9 µM) | 2.7 (≈ 9.43 µM)
O=C1C[C@@H](c2ccc(O)cc2)Oc2cc(O)ccc21 [LIQUIRTIGENIN] | > 25 | 22.5 (≈ 87.8 µM) | 19.5 (≈ 76.1 µM) | > 25 | 5 (≈ 19.5 µM)
